Assay results taken from patent US6399542B1, “Alkoxyimino-substituted bicyclic compounds compositions containing the same and method of making such compounds” (Agro-Kanesho Co., Ltd., priority 1997, dated 2002).

tested on: Psecidoperonospora cubensis; test: Effect on Cucumber downy mildew (preventive spray test); type: in vivo; settings: conc. of active ingredient 100 ppm, 7 days after inoculation

Row | SMILES | Preventive rate (%)
1 | CON=C(C(=O)OC)c1ccccc1COc1cc2c(cc1C)C(=NOC)C(C)C2 (single isomer, unassigned) [f-10] | 100

tested on: Phytophthora infestans; test: not given; type: in vivo; settings: Tomato late blight; conc. of active ingredient 20 ppm; 5 days after inoculation

Row | SMILES | Preventive rate (%)
2 | CO/C=C(/C(=O)OC)c1ccccc1COc1ccc2c(c1C)OC(C)C2=NOC (single isomer, unassigned) [b-4] | 97
3 | CO/C=C(/C(=O)OC)c1ccccc1COc1ccc2c(c1C)OC(C)C2=NOC (single isomer, unassigned) [b-5] | 91
4 | CON=C(C(=O)OC)c1ccccc1COc1cc2c(cc1C)C(=NOC)C(C)C2 (single isomer, unassigned) [f-10] | 97
5 | CNC(=O)C(=NOC)c1ccccc1COc1ccc2c(c1C)OCCC2=NOCC=CCl [c-62] | 100

same assay, conditions: Tomato late blight; conc. of active ingredient 100 ppm; 5 days after inoculation

Row | SMILES | Preventive rate (%)
6 | CO/C=C(/C(=O)OC)c1ccccc1COc1ccc2c(c1C)OC(C)C2=NOC (single isomer, unassigned) [b-4] | 97
7 | CO/C=C(/C(=O)OC)c1ccccc1COc1ccc2c(c1C)OC(C)C2=NOC (single isomer, unassigned) [b-5] | 97
8 | CON=C(C(=O)OC)c1ccccc1COc1cc2c(cc1C)C(=NOC)C(C)C2 (single isomer, unassigned) [f-10] | 98
9 | CCCCON=C1CCOc2c1ccc(OCc1ccccc1C(=NOC)C(=O)NC)c2C [c-58] | 100
10 | CNC(=O)C(=NOC)c1ccccc1COc1ccc2c(c1C)OCCC2=NOCC=CCl [c-62] | 100

tested on: Puccinia recondita; test: Effect on Wheat brown rust (preventive spray test); type: in vivo; settings: conc. of active ingredient 4 ppm, 7 days after inoculation

Row | SMILES | Preventive rate (%)
11 | COC=C(C(=O)OC)c1ccccc1COc1ccc2c(c1C)OC(C)CC2=NOC (racemic) [d-8] | 100
12 | CO/C=C(/C(=O)OC)c1ccccc1COc1ccc2c(c1C)OC(C)C2=NOC (single isomer, unassigned) [b-4] | 100
13 | CO/C=C(/C(=O)OC)c1ccccc1COc1ccc2c(c1C)OC(C)C2=NOC (single isomer, unassigned) [b-5] | 100
14 | CCCCON=C1CCOc2c1ccc(OCc1ccccc1C(=NOC)C(=O)NC)c2C [c-58] | 98
15 | CNC(=O)C(=NOC)c1ccccc1COc1ccc2c(c1C)OCCC2=NOCC=CCl [c-62] | 100
16 | C=C(Cl)CON=C1CCOc2c1ccc(OCc1ccccc1C(=NOC)C(=O)NC)c2C [c-64] | 99

same assay, conditions: conc. of active ingredient 20 ppm, 7 days after inoculation

Row | SMILES | Preventive rate (%)
17 | COC=C(C(=O)OC)c1ccccc1COc1ccc2c(c1C)OC(C)CC2=NOC (racemic) [d-8] | 100
18 | CO/C=C(/C(=O)OC)c1ccccc1COc1ccc2c(c1C)OC(C)C2=NOC (single isomer, unassigned) [b-4] | 100
19 | CO/C=C(/C(=O)OC)c1ccccc1COc1ccc2c(c1C)OC(C)C2=NOC (single isomer, unassigned) [b-5] | 100
20 | CCCCON=C1CCOc2c1ccc(OCc1ccccc1C(=NOC)C(=O)NC)c2C [c-58] | 100
21 | CNC(=O)C(=NOC)c1ccccc1COc1ccc2c(c1C)OCCC2=NOCC=CCl [c-62] | 100
22 | C=C(Cl)CON=C1CCOc2c1ccc(OCc1ccccc1C(=NOC)C(=O)NC)c2C [c-64] | 99
23 | CON=C(C(=O)OC)c1ccccc1COc1ccc2c(c1C)OC(C)(C)CC2=NOC [d-6] | 92

same assay, conditions: conc. of active ingredient 100 ppm, 7 days after inoculation

Row | SMILES | Preventive rate (%)
24 | COC=C(C(=O)OC)c1ccccc1COc1ccc2c(c1C)OC(C)CC2=NOC (racemic) [d-8] | 100
25 | CO/C=C(/C(=O)OC)c1ccccc1COc1ccc2c(c1C)OC(C)C2=NOC (single isomer, unassigned) [b-4] | 100
26 | CO/C=C(/C(=O)OC)c1ccccc1COc1ccc2c(c1C)OC(C)C2=NOC (single isomer, unassigned) [b-5] | 100
27 | CCCCON=C1CCOc2c1ccc(OCc1ccccc1C(=NOC)C(=O)NC)c2C [c-58] | 100
28 | CNC(=O)C(=NOC)c1ccccc1COc1ccc2c(c1C)OCCC2=NOCC=CCl [c-62] | 100
29 | C=C(Cl)CON=C1CCOc2c1ccc(OCc1ccccc1C(=NOC)C(=O)NC)c2C [c-64] | 100
30 | CON=C(C(=O)OC)c1ccccc1COc1ccc2c(c1C)OC(C)(C)CC2=NOC [d-6] | 99

tested on: Erysiphe graminis; test: Effects on Barley powdery mildew (preventive spray test); type: in vivo; settings: conc. of active ingredient 4 ppm, lesions counted seven days after inoculation

Row | SMILES | Preventive rate (%)
31 | COC=C(C(=O)OC)c1ccccc1COc1ccc2c(c1C)OC(C)CC2=NOC (racemic) [d-8] | 100
32 | CO/C=C(/C(=O)OC)c1ccccc1COc1ccc2c(c1C)OC(C)C2=NOC (single isomer, unassigned) [b-4] | 98
33 | CO/C=C(/C(=O)OC)c1ccccc1COc1ccc2c(c1C)OC(C)C2=NOC (single isomer, unassigned) [b-5] | 98
34 | CNC(=O)C(=NOC)c1ccccc1COc1ccc2c(c1C)OCCC2=NOCC=CCl [c-62] | 96

same assay, conditions: conc. of active ingredient 20 ppm, lesions counted seven days after inoculation

Row | SMILES | Preventive rate (%)
35 | COC=C(C(=O)OC)c1ccccc1COc1ccc2c(c1C)OC(C)CC2=NOC (racemic) [d-8] | 100
36 | CO/C=C(/C(=O)OC)c1ccccc1COc1ccc2c(c1C)OC(C)C2=NOC (single isomer, unassigned) [b-4] | 100
37 | CO/C=C(/C(=O)OC)c1ccccc1COc1ccc2c(c1C)OC(C)C2=NOC (single isomer, unassigned) [b-5] | 98
38 | CCCCON=C1CCOc2c1ccc(OCc1ccccc1C(=NOC)C(=O)NC)c2C [c-58] | 98
39 | CNC(=O)C(=NOC)c1ccccc1COc1ccc2c(c1C)OCCC2=NOCC=CCl [c-62] | 100
40 | C=C(Cl)CON=C1CCOc2c1ccc(OCc1ccccc1C(=NOC)C(=O)NC)c2C [c-64] | 96

same assay, conditions: conc. of active ingredient 100 ppm, lesions counted seven days after inoculation

Row | SMILES | Preventive rate (%)
41 | COC=C(C(=O)OC)c1ccccc1COc1ccc2c(c1C)OC(C)CC2=NOC (racemic) [d-8] | 100
42 | CO/C=C(/C(=O)OC)c1ccccc1COc1ccc2c(c1C)OC(C)C2=NOC (single isomer, unassigned) [b-4] | 100
43 | CO/C=C(/C(=O)OC)c1ccccc1COc1ccc2c(c1C)OC(C)C2=NOC (single isomer, unassigned) [b-5] | 100
44 | CCCCON=C1CCOc2c1ccc(OCc1ccccc1C(=NOC)C(=O)NC)c2C [c-58] | 100
45 | CNC(=O)C(=NOC)c1ccccc1COc1ccc2c(c1C)OCCC2=NOCC=CCl [c-62] | 100
46 | C=C(Cl)CON=C1CCOc2c1ccc(OCc1ccccc1C(=NOC)C(=O)NC)c2C [c-64] | 100

tested on: Chochliobolus miyabeanus; test: Effect on Rice brown spot (preventive spray test); type: in vivo; settings: conc. of active ingredient 4 ppm, 7 days after inoculation

Row | SMILES | Preventive rate (%)
47 | COC=C(C(=O)OC)c1ccccc1COc1ccc2c(c1)CCC2=NO [e-1] | 87

tested on: Pyricularia oryzae; test: not given; type: in vivo; settings: Rice blast; conc. of active ingredient 4 ppm; 7 days after inoculation

Row | SMILES | Preventive rate (%)
48 | COC=C(C(=O)OC)c1ccccc1COc1ccc2c(c1C)OC(C)CC2=NOC (racemic) [d-8] | 77
49 | CON=C(C(=O)OC)c1ccccc1COc1cc2c(cc1C)C(=NOC)C(C)C2 (single isomer, unassigned) [f-10] | 85
50 | CON=C(C(=O)OC)c1ccccc1COc1ccc2c(c1C)OC(C)(C)CC2=NOC [d-6] | 71

same assay, conditions: Rice blast; conc. of active ingredient 20 ppm; 7 days after inoculation

Row | SMILES | Preventive rate (%)
51 | COC=C(C(=O)OC)c1ccccc1COc1ccc2c(c1C)OC(C)CC2=NOC (racemic) [d-8] | 83
52 | CO/C=C(/C(=O)OC)c1ccccc1COc1ccc2c(c1C)OC(C)C2=NOC (single isomer, unassigned) [b-4] | 89
53 | CO/C=C(/C(=O)OC)c1ccccc1COc1ccc2c(c1C)OC(C)C2=NOC (single isomer, unassigned) [b-5] | 84
54 | CON=C(C(=O)OC)c1ccccc1COc1cc2c(cc1C)C(=NOC)C(C)C2 (single isomer, unassigned) [f-10] | 85
55 | C=C(Cl)CON=C1CCOc2c1ccc(OCc1ccccc1C(=NOC)C(=O)NC)c2C [c-64] | 80
56 | CON=C(C(=O)OC)c1ccccc1COc1ccc2c(c1C)OC(C)(C)CC2=NOC [d-6] | 77

same assay, conditions: Rice blast; conc. of active ingredient 100 ppm; 7 days after inoculation

Row | SMILES | Preventive rate (%)
57 | COC=C(C(=O)OC)c1ccccc1COc1ccc2c(c1C)OC(C)CC2=NOC (racemic) [d-8] | 100
58 | CO/C=C(/C(=O)OC)c1ccccc1COc1ccc2c(c1C)OC(C)C2=NOC (single isomer, unassigned) [b-4] | 95
59 | CO/C=C(/C(=O)OC)c1ccccc1COc1ccc2c(c1C)OC(C)C2=NOC (single isomer, unassigned) [b-5] | 95
60 | CON=C(C(=O)OC)c1ccccc1COc1cc2c(cc1C)C(=NOC)C(C)C2 (single isomer, unassigned) [f-10] | 90
61 | C=C(Cl)CON=C1CCOc2c1ccc(OCc1ccccc1C(=NOC)C(=O)NC)c2C [c-64] | 98
62 | CON=C(C(=O)OC)c1ccccc1COc1ccc2c(c1C)OC(C)(C)CC2=NOC [d-6] | 92
